Source: patent EP4722212A1, “NOVEL COMPOUND FOR INHIBITING PROTEIN KINASES AND PHARMACEUTICAL COMPOSITION COMPRISING SAME” (Magicbullettherapeutics Co., Ltd., priority 2023, dated 2024)

Assays:
[1] = biological target: T1, BMX (Homo sapiens, UniProt P51813); assay: Enzyme activity inhibition (Reaction Biology); assay type: biochemical
T1 construct: purchased Reaction Biology (RBC)
T1 sequence (P51813 1-675): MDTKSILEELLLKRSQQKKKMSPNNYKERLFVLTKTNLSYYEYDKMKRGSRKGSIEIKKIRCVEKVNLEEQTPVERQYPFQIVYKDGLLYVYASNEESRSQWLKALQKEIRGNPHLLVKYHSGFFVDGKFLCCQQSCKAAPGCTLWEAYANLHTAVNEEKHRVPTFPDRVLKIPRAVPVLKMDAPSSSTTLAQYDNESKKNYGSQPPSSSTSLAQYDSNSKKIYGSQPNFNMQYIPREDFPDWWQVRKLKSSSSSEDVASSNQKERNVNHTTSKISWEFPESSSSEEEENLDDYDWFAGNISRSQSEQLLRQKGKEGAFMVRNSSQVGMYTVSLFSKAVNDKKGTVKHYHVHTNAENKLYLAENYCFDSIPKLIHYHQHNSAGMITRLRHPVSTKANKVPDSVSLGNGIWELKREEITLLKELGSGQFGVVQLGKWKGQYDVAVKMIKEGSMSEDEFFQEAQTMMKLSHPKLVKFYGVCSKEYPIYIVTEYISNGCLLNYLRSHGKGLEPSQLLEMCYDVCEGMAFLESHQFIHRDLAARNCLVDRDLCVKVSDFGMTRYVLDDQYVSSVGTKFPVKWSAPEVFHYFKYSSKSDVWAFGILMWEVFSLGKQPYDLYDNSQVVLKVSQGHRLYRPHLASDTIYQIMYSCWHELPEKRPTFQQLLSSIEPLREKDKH
Protocol: (§1) [* <10 nM: A, <100 nM: B, >100 nM: C]. [Table 7]

[2] = biological target: T2, Src (Homo sapiens, UniProt P12931); assay: Enzyme activity inhibition (Reaction Biology); assay type: biochemical
T2 construct: purchased Reaction Biology (RBC)
T2 sequence (P12931 whole entry): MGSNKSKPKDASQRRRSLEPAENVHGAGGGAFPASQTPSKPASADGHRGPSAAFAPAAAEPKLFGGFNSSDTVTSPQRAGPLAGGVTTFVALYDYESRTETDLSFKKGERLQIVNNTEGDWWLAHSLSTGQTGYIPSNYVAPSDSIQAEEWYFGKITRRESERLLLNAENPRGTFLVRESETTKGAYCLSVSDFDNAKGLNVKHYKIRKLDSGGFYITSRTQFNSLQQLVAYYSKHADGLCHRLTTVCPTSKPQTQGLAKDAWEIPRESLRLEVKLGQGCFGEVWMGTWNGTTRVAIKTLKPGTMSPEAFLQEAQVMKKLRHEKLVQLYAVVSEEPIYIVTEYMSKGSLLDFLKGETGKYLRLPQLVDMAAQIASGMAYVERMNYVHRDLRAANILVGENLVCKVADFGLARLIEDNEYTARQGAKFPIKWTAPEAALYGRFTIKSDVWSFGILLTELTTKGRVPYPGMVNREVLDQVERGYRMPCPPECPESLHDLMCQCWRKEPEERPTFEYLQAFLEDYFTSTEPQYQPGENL
Protocol: as §1

[3] = biological target: T3, ACK1 (Homo sapiens, UniProt Q07912); assay: Enzyme activity inhibition (Reaction Biology); assay type: biochemical
T3 construct: purchased Reaction Biology (RBC)
T3 sequence (Q07912 whole entry): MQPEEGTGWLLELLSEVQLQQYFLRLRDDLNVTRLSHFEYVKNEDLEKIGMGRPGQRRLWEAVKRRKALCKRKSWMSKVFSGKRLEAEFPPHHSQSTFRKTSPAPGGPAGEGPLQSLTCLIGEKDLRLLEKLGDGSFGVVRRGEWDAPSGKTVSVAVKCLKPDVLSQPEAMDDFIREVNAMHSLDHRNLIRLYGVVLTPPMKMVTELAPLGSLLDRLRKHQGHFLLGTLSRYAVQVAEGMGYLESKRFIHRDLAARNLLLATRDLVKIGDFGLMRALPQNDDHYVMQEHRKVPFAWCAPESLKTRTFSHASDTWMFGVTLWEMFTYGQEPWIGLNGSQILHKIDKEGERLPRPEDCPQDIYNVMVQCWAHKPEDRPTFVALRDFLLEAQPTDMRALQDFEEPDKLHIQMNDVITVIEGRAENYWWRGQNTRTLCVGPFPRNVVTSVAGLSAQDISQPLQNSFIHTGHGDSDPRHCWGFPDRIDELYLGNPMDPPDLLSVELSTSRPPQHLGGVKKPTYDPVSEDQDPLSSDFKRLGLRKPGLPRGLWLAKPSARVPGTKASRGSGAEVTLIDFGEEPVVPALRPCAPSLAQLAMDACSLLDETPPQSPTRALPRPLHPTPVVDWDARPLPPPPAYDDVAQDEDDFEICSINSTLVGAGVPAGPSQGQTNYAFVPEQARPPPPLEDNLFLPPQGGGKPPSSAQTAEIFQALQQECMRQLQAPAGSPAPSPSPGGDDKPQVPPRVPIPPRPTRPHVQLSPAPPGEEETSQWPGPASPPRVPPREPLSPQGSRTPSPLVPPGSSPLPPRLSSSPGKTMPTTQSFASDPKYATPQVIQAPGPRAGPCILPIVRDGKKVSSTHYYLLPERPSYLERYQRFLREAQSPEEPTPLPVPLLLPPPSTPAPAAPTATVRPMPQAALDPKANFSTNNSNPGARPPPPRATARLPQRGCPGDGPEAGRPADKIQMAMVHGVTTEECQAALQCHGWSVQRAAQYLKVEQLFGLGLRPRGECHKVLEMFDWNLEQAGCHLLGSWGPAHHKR
Protocol: as §1

[4] = system: 22Rv1; assay: Cell line inhibition analysis (CCK-8, 72 h); assay type: cell-based; conditions: Homo sapiens; 22Rv1, 72 hours; read-out: Cell growth inhibition GI50 22Rv1
Protocol: (§2) C4-2B and 22Rv1 cells were purchased from ATCC and cultured according to the manufacturer's instructions. The cells were seeded in 96-well plates at 7×10^3cells/100 µl/well and allowed to attach for one day. After removing the culture medium, 90 µl/well of fresh culture medium was added, followed by addition of 10 µl/well of culture medium containing compounds at nine concentrations (0.076-500 µM) serially diluted 3-fold and DMSO control to achieve final concentrations of 0-50 µM, and then cultured for 72 hours in a 37 °C CO2 incubator. Cell proliferation after 72 hours was assessed by adding 10 µl/well of CCK-8 solution, orbital shaking for 30 seconds, then incubating at 37 °C CO2 incubator for 2 hours and measuring absorbance at 450 nm using a microplate reader. The measured absorbance values were corrected by subtracting the absorbance of wells containing only culture medium and CCK-8 solution, and GI50 values were calculated using GraphPad Prism 8 software.
(§3) Meanwhile, in a separate 96-well plate, cells were seeded at 7 × 10^3 cells/100 µl/well, allowed to attach for one day, CCK-8 solution was added, and absorbance was measured to establish the 'Growth (%) = 0' value.

[5] = system: C4-2B; assay: Cell line inhibition analysis (CCK-8, 72 h); assay type: cell-based; conditions: read-out: Cell growth inhibition GI50 C4-2B
Protocol: as §2, §3

[6] = system: MIA-Paca-2; assay: Cell line inhibition analysis (CCK-8, 72 h); assay type: cell-based; conditions: Homo sapiens, read-out: Cell growth inhibition GI50 MIA-Paca-2
Protocol: as §2, §3
(§4) Furthermore, experiments were conducted on A172, A549, HCI-H460, AsPC-1, MIA-Paca-2, DLD-1, HCT-116, HT-29, SW480, SW620, MDA-MB-231, and SKOV3 cell lines using the same method, with results shown in Tables 9 and 10 below [* <1 µM: A, <5 µM: B, <10 µM: C, >10 µM: D].

[7] = system: A172; assay: Cell line inhibition analysis (CCK-8, 72 h); assay type: cell-based; conditions: Homo sapiens, A 172; read-out: Cell growth inhibition GI50 A172
Protocol: as §2, §3, §4

[8] = system: SKOV3; assay: Cell line inhibition analysis (CCK-8, 72 h); assay type: cell-based; conditions: Homo sapiens, SK-OV-3; read-out: Cell growth inhibition GI50 SKOV3
Protocol: as §2, §3, §4

[9] = system: MDA-MB-231; assay: Cell line inhibition analysis (CCK-8, 72 h); assay type: cell-based; conditions: Homo sapiens, read-out: Cell growth inhibition GI50 MDA-MB-231
Protocol: as §2, §3, §4

[10] = system: AsPC-1; assay: Cell line inhibition analysis (CCK-8, 72 h); assay type: cell-based; conditions: Homo sapiens, ASPC1; read-out: Cell growth inhibition GI50 AsPC-1
Protocol: as §2, §3, §4

[11] = system: HT-29; assay: Cell line inhibition analysis (CCK-8, 72 h); assay type: cell-based; conditions: Homo sapiens, read-out: Cell growth inhibition GI50 HT-29
Protocol: as §2, §3, §4

[12] = system: SW480; assay: Cell line inhibition analysis (CCK-8, 72 h); assay type: cell-based; conditions: Homo sapiens, read-out: Cell growth inhibition GI50 SW480
Protocol: as §2, §3, §4

[13] = system: DLD-1; assay: Cell line inhibition analysis (CCK-8, 72 h); assay type: cell-based; conditions: Homo sapiens, read-out: Cell growth inhibition GI50 DLD-1
Protocol: as §2, §3, §4

[14] = system: HCI-H460; assay: Cell line inhibition analysis (CCK-8, 72 h); assay type: cell-based; conditions: read-out: Cell growth inhibition GI50 HCI-H460
Protocol: as §2, §3, §4

[15] = system: A549; assay: Cell line inhibition analysis (CCK-8, 72 h); assay type: cell-based; conditions: Homo sapiens, read-out: Cell growth inhibition GI50 A549
Protocol: as §2, §3, §4

[16] = system: HCT-116; assay: Cell line inhibition analysis (CCK-8, 72 h); assay type: cell-based; conditions: Homo sapiens, read-out: Cell growth inhibition GI50 HCT-116
Protocol: as §2, §3, §4

[17] = system: SW620; assay: Cell line inhibition analysis (CCK-8, 72 h); assay type: cell-based; conditions: Homo sapiens, SW-620; read-out: Cell growth inhibition GI50 SW620
Protocol: as §2, §3, §4

Row | IC50 [1] | IC50 [2] | IC50 [3] | GI50 [4] | GI50 [6] | GI50 [8] | GI50 [9] | GI50 [10] | GI50 [11] | GI50 [12] | GI50 [13] | GI50 [14] | GI50 [15] | GI50 [16] | GI50 [17] | SMILES | GI50 [5] | GI50 [7]
1 | 10 to 100 nM | 10 to 100 nM | 10 to 100 nM | 1000 to 5000 nM | < 1000 nM | 1000 to 5000 nM | 1000 to 5000 nM | < 1000 nM | > 10000 nM | 1000 to 5000 nM | 1000 to 5000 nM | 1000 to 5000 nM | > 10000 nM | < 1000 nM | 1000 to 5000 nM | Cc1ccc(NC(=O)c2cccc(C(F)(F)F)c2)cc1N1Cc2cnc(N)nc2C2(CC2)C1=O [Compound 2, N-(3-(2'-amino-7'-oxo-5'H-spiro[cyclopropane-1,8'-pyrido[4,3-d]pyrimidine]-6'(7'H)-yl)-4-methylphenyl)-3-(trifluoromethyl)benzamide] | 1000 to 5000 nM | < 1000 nM
2 | < 10 nM | < 10 nM | < 10 nM | < 1000 nM | – | – | 1000 to 5000 nM | < 1000 nM | – | 1000 to 5000 nM | – | – | – | 1000 to 5000 nM | 1000 to 5000 nM | Cc1ccc(NC(=O)c2cc(F)cc(C(F)(F)F)c2)cc1N1Cc2cnc(N)nc2C2(CC2)C1=O [Compound 7, N-(3-(2'-amino-7'-oxo-5'H-spiro[cyclopropane-1,8'-pyrido[4,3-d]pyrimidine]-6'(7'H)-yl)-4-methylphenyl)-3-fluoro-5-(trifluoromethyl)benzamide] | < 1000 nM | –
3 | < 10 nM | < 10 nM | 10 to 100 nM | < 1000 nM | – | – | – | – | – | – | – | – | – | – | – | Cc1ccc(NC(=O)c2cc(Cl)cc(C(F)(F)F)c2)cc1N1Cc2cnc(N)nc2C2(CC2)C1=O [Compound 26, N-(3-(2'-amino-7'-oxo-5'H-spiro[cyclopropane-1,8'-pyrido[4,3-d]pyrimidine]-6'(7'H)-yl)-4-methylphenyl)-3-chloro-5-(trifluoromethyl)benzamide] | < 1000 nM | –
4 | – | – | – | – | – | – | < 1000 nM | < 1000 nM | – | < 1000 nM | – | – | – | < 1000 nM | < 1000 nM | Cc1ccc(NC(=O)c2cccc(C(F)(F)F)c2)cc1N1Cc2cnc(Nc3cnn(CC(F)(F)F)c3)nc2C2(CC2)C1=O [Compound 64, N-(4-methyl-3-(7'-oxo-2'-((1-(2,2,2-trifluoroethyl)-1H-pyrazol-4-yl)amino)-5'H-spiro[cyclopropane-1,8'-pyrido[4,3-d]pyrimidine]-6'(7'H)-yl)phenyl)-3-(trifluoromethyl)benzamide] | – | –
5 | – | – | – | – | – | – | – | – | > 10000 nM | – | – | – | > 10000 nM | – | – | Cc1ccc(NC(=O)c2cncc(C(F)(F)F)c2)cc1N1Cc2cnc(N[C@@H](C)CO)nc2C2(CC2)C1=O [Compound 131, (S)-N-(3-(2'-((1-hydroxypropan-2-yl)amino)-7'-oxo-5'H-spiro[cyclopropane-1,8'-pyrido[4,3-d]pyrimidine]-6'(7'H)-yl)-4-methylphenyl)-5-(trifluoromethyl)nicotinamide] | – | 1000 to 5000 nM

More lines, now with the values behind:

Row | SMILES | IC50 [1] | IC50 [2] | IC50 [3] | GI50 [4] | GI50 [6] | GI50 [8] | GI50 [9] | GI50 [10] | GI50 [11] | GI50 [12] | GI50 [13] | GI50 [14] | GI50 [15] | GI50 [16] | GI50 [17] | GI50 [5] | GI50 [7]
6 | Cc1ccc(NC(=O)c2cccc(C(F)(F)F)c2)cc1N1Cc2cnc(NC3CC3)nc2C2(CC2)C1=O [Compound 3, N-(3-(2'-(cyclopropylamino)-7'-oxo-5'H-spiro[cyclopropane-1,8'-pyrido[4,3-d]pyrimidine]-6'(7'H)-yl)-4-methylphenyl)-3-(trifluoromethyl)benzamide] | < 10 nM | 10 to 100 nM | 10 to 100 nM | > 10000 nM | – | – | 1000 to 5000 nM | 1000 to 5000 nM | – | 1000 to 5000 nM | – | – | – | 1000 to 5000 nM | 1000 to 5000 nM | 1000 to 5000 nM | –
7 | Cc1ccc(NC(=O)c2cc(N3CCOCC3)cc(C(F)(F)F)c2)cc1N1Cc2cnc(NC3CC3)nc2C2(CC2)C1=O [Compound 28, N-(3-(2'-(cyclopropylamino)-7'-oxo-5'H-spiro[cyclopropane-1,8'-pyrido[4,3-d]pyrimidine]-6'(7'H)-yl)-4-methylphenyl)-3-morpholino-5-(trifluoromethyl)benzamide] | < 10 nM | > 100 nM | 10 to 100 nM | – | – | – | – | 5000 to 10000 nM | – | 1000 to 5000 nM | – | – | – | < 1000 nM | 1000 to 5000 nM | 1000 to 5000 nM | –
8 | Cc1ccc(NC(=O)c2cccc(C(F)(F)F)c2)cc1N1Cc2cnc(Nc3ccc(N4CCN(C)CC4)cc3)nc2C2(CC2)C1=O [Compound 38, N-(4-methyl-3-(2'-((4-(4-methylpiperazin-1-yl)phenyl)amino)-7'-oxo-5'H-spiro[cyclopropane-1,8'-pyrido[4,3-d]pyrimidine]-6'(7'H)-yl)phenyl)-3-(trifluoromethyl)benzamide] | – | – | – | – | – | – | – | < 1000 nM | – | < 1000 nM | – | – | – | < 1000 nM | < 1000 nM | – | –
9 | Cc1ccc(NC(=O)c2cccc(C(F)(F)F)c2)cc1N1Cc2cnc(Nc3ccc(CN4CCN(C)CC4)cc3)nc2C2(CC2)C1=O [Compound 43, N-(4-methyl-3-(2'-((4-((4-methylpiperazin-1-yl)methyl)phenyl)amino)-7'-oxo-5'H-spiro[cyclopropane-1,8'-pyrido[4,3-d]pyrimidine]-6'(7'H)-yl)phenyl)-3-(trifluoromethyl)benzamide] | – | – | – | – | – | – | – | < 1000 nM | – | – | – | – | – | < 1000 nM | – | – | –
10 | Cc1ccc(NC(=O)c2cccc(C(F)(F)F)c2)cc1N1Cc2cnc(NCCO)nc2C2(CC2)C1=O [Compound 126, N-(3-(2'-((2-hydroxyethyl)amino)-7'-oxo-5'H-spiro[cyclopropane-1,8'-pyrido[4,3-d]pyrimidine]-6'(7'H)-yl)-4-methylphenyl)-3-(trifluoromethyl)benzamide] | – | – | – | – | – | – | – | – | 5000 to 10000 nM | – | – | – | 1000 to 5000 nM | – | – | – | 1000 to 5000 nM
11 | Cc1ccc(NC(=O)c2cccc(C(F)(F)F)c2)cc1N1Cc2cnc(N[C@@H](C)CO)nc2C2(CC2)C1=O [Compound 127, (S)-N-(3-(2'-((1-hydroxypropan-2-yl)amino)-7'-oxo-5'H-spiro[cyclopropane-1,8'-pyrido[4,3-d]pyrimidine]-6'(7'H)-yl)-4-methylphenyl)-3-(trifluoromethyl)benzamide] | – | – | – | – | – | – | – | – | > 10000 nM | – | – | – | > 10000 nM | – | – | – | < 1000 nM
12 | Cc1ccc(NC(=O)c2cncc(C(F)(F)F)c2)cc1N1Cc2cnc(NCCO)nc2C2(CC2)C1=O [Compound 130, N-(3-(2'-((2-hydroxyethyl)amino)-7'-oxo-5'H-spiro[cyclopropane-1,8'-pyrido[4,3-d]pyrimidine]-6'(7'H)-yl)-4-methylphenyl)-5-(trifluoromethyl)nicotinamide] | – | – | – | – | – | – | – | – | > 10000 nM | – | – | – | > 10000 nM | – | – | – | 1000 to 5000 nM
